The source made the active and inactive calls. No cut-off for these calls is given here.

Assay [1] concerns MDA-MB-435. The assay is described as follows: Growth inhibition of human MDA-MB-435 cells assessed as cell growth at 10^-4 M incubated for 48 hrs by sulforhodamine B assay relative to control. Format: functional. The settings on record: MDA-MB-435, 48 h, read-out: Activity. A general note: The SRB assay estimates cell density from bound dye.
The subject of assay [2] is NCI-H460. The assay is described as follows: Growth inhibition of human NCI-H460 cells assessed as cell growth at 10^-4 M incubated for 48 hrs by sulforhodamine B assay relative to control. It is filed as functional. To be noted: NCI-H460, 48 h, read-out: Activity.
The test system of assay [3] is OVCAR-8. The assay can be described thus: Growth inhibition of human OVCAR8 cells assessed as cell growth at 10^-5 M incubated for 48 hrs by sulforhodamine B assay relative to control. It is filed as functional. The settings on record: OVCAR-8, 48 h, read-out: Activity.
The test system of assay [4] is IGROV-1. The assay is described as follows: Growth inhibition of human IGROV1 cells assessed as cell growth at 10^-5 M incubated for 48 hrs by sulforhodamine B assay relative to control. Format: functional. The settings on record: IGROV-1, 48 h, read-out: Activity.
Assay [5] deals with SK-OV-3. The assay is described as follows: Growth inhibition of human SKOV3 cells assessed as cell growth at 10^-6 M incubated for 48 hrs by sulforhodamine B assay relative to control. It is filed as functional. To be noted: SK-OV-3, 48 h, read-out: Activity.
The test system of assay [6] is Homo sapiens. The assay is described as follows: Antitumor activity against human MDA-MB-231-LM2 cells xenografted in SCID mouse assessed as decrease in tumor size at 0.3 mg/kg, it 3 times a week for 2 consecutive weeks starting 10 days post inoculation. Format: functional, organism-based. On the technique in general: Xenograft models place foreign cells or tissue in a host animal.

The test system of assay [7] is Homo sapiens. The assay can be described thus: Antitumor activity against human MDA-MB-231-LM2 cells xenografted in SCID mouse assessed as inhibition of lung metastasis at 0.3 mg/kg, it 3 times a week for 2 consecutive weeks starting 10 days post inoculation measured at day 34. Format: functional, organism-based.
Assay [8] in a line: Antitumor activity against human MDA-MB-231-LM2 cells xenografted in SCID mouse assessed as tumor weight at 0.3 mg/kg, it 3 times a week for 2 consecutive weeks starting 10 days post inoculation measured at day 35 (reference value: 551 +/- 74 mg). Format: functional.

Consider `C#C[C@@]1(O)[C@@H](CO)O[C@@H](n2ccc3c(N)ncnc32)[C@@H]1O`, for which the growth at 100 µM was -76% in assay [1] and -13% in assay [2]. The figures for the growth at 10 µM in assay [3] and in assay [4] were -32% and -19%, respectively. Besides, the growth at 1 µM in assay [5] came to 52%.
In the case of `C#C[C@@]1(O)[C@@H](CO)O[C@@H](n2cc(Cl)c3c(N)ncnc32)[C@@H]1O`, the outcome in assay [6] and in assay [7] was Active. Further, the Activity in assay [8] is on record as 241 mg.
Take `C#C[C@@]1(O)[C@@H](CO)O[C@@H](n2cc(F)c3c(N)ncnc32)[C@@H]1O`: the growth at 100 µM in assay [1] was -63%; in assay [2], -38%. Besides, the values for the growth at 10 µM in assay [3] and in assay [4] were -12% and -33%, respectively. Further, the growth at 1 µM in assay [5] came to 12%.

Source of the values: ChEMBL document CHEMBL4270599, “Synthesis of a 3'-C-ethynyl-β-d-ribofuranose purine nucleoside library: Discovery of C7-deazapurine analogs as potent antiproliferative nucleosides” (Eur J Med Chem, 2018).
